Data: patent US7687620B2, “[1,4]diazepino[6,7,1-IJ]quinoline derivatives as antipsychotic and antiobesity agents” (Wyeth LLC, priority 2002, dated 2010)
Counter-ions that a name gives are not always drawn. Like-named read-outs stand apart in the source and are kept apart here.

Key:
[1] = target: T1, human 5-hydroxytryptamine2C (h5HT2C) receptor (Homo sapiens, UniProt P28335); assay: 5HT2C receptor binding ([125I]DOI displacement, CHO cell membranes)
T1 construct: expressed in transfected cells; host or cells: CHO (Chinese Hamster Ovary) cells; membrane preparation
T1 sequence (P28335 33-458): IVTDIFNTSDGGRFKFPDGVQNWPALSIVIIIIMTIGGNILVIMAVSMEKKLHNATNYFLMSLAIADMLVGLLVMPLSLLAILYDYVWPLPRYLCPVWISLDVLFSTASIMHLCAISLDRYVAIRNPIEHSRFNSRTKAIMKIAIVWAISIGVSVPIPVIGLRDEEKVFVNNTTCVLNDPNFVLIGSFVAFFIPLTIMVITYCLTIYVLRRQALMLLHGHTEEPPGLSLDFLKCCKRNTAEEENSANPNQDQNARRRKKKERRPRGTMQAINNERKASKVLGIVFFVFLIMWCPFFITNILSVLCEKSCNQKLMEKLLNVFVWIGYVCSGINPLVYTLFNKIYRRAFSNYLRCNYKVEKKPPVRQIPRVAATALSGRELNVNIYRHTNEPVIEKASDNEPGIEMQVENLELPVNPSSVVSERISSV

[2] = target: T2, human 5-HT2C receptor (Homo sapiens, UniProt P28335); assay: Calcium mobilization in response to 5-HT2C receptor agonists (FLIPR, CHO cells); format: cell-based; settings: for Emax: CHO, read-out: 5-HT2C Function Emax (%) (5-HT, 100%); for EC50: calcium mobilization, CHO cells stably expressing human 5-HT2C, read-out: 5-HT2C Function EC50
T2 sequence (P28335 33-458): T1 sequence (P28335 33-458)

Row | Structure (SMILES) | Ki [1] [nM] | further results
1 | Fc1ccc2c3c1C1CCCC1CN3CCNC2 (stereo not shown) [Example 26, 1-fluoro-4,5,6,7,9,9a,10,11,12,12a-decahydrocyclopenta[c][1,4]diazepino[6,7,1-ij]quinoline hydrochloride] | 20 | –
2 | FC(F)(F)c1ccc2c3c1C1CCCC1CN3CCNC2 (stereo not shown) [Example 30, 1-(trifluoromethyl)-4,5,6,7,9,9a,10,11,12,12a-decahydrocyclopenta[c][1,4]diazepino[6,7,1-ij]quinoline hydrochloride] | 59 | –
3 | Brc1cc2c3c(c1)C1CCCCCC1CN3CCNC2 (stereo not shown) [Example 16, 2-bromo-4,5,6,7,9,9a,10,11,12,13,14,14a-dodecahydrocyclohepta[c][1,4]diazepino[6,7,1-ij]quinoline hydrochloride] | 2300 | –
4 | COc1cc(CC(C)N)c(OC)cc1I (stereo not shown) [[^125I]DOI, reference compound] | – | Kd ([1]; read-out: dissociation constant, KD of [125I]DOI at the human serotonin 5HT2C receptor, saturation binding with increasing concentrations of [125I]DOI): 0.4 nM
5 | c1cc2c3c(c1)C1CCCCCC1CN3CCNC2 (stereo not shown) [Example 8, 4,5,6,7,9,9a,10,11,12,13,14,14a-dodecahydrocyclohepta[c][1,4]diazepino[6,7,1-ij]quinoline] | 13 | Emax [2]: 70%; EC50 [2]: 261 nM
6 | COc1cc2c3c(c1F)C1CCCCCC1CN3CCNC2 (stereo not shown) [Example 34, 1-fluoro-2-methoxy-4,5,6,7,9,9a,10,11,12,13,14,14a-dodecahydrocyclohepta[c][1,4]diazepino[6,7,1-ij]quinoline hydrochloride] | 249 | –
7 | c1cc2c3c(c1)C1CCCCC1CN3CCNC2 (stereo not shown) [Example 6, 4,5,6,7,9a,10,11,12,13,13a-decahydro-9H-[1,4]diazepino[6,7,1-de]phenanthridine hydrochloride] | 24 | Emax [2]: 60%; EC50 [2]: 65 nM
8 | COc1cc2c3c(c1)C1CCCC1CN3CCNC2 (stereo not shown) [Example 24, 2-methoxy-4,5,6,7,9,9a,10,11,12,12a-decahydrocyclopenta[c][1,4]diazepino[6,7,1-ij]quinoline hydrochloride] | 199 | –
9 | CSc1ccc2c(c1)C(N1CCN(C)CC1)Cc1ccccc1S2 (stereo not shown) [Methiothepin, reference compound] | – | Ki ([1]; [125I]DOI binding, CHO membranes expressing h5HT2C, 95% confidence interval in brackets, read-out: Ki (95% confidence interval), reference compounds): 4.6 nM
10 | Fc1ccc2c3c1C1CCCCCC1CN3CCNC2 (stereo not shown) [Example 28, 1-fluoro-4,5,6,7,9,9a,10,11,12,13,14,14a-dodecahydrocyclohepta[c][1,4]diazepino[6,7,1-ij]quinoline hydrochloride] | 169 | –
11 | c1cc2c3c(c1)[C@@H]1CCCCC[C@@H]1CN3CCNC2 [Example 12, (9aS,14aR)-4,5,6,7,9,9a,10,11,12,13,14,14a-dodecahydrocyclohepta[c][1,4]diazepino[6,7,1-ij]quinoline hydrochloride] | 117 | –
12 | COc1cc2c3c(c1F)C1CCCC1CN3CCNC2 (stereo not shown) [Example 32, 1-fluoro-2-methoxy-4,5,6,7,9,9a,10,11,12,12a-decahydrocyclopenta[c][1,4]diazepino[6,7,1-ij]quinoline hydrochloride] | 223 | –
13 | c1cc2c3c(c1)C1CCCC1CN3CCNC2 (single isomer, unassigned; (-)) [Example 4, (−)-4,5,6,7,9,9a10,11,12,12a-decahydrocyclopenta[c][1,4]diazepino[6,7,1-ij]quinoline] | 3 | Emax [2]: 100%; EC50 [2]: 8 nM
14 | c1cc2c3c(c1)[C@H]1CCCCC[C@H]1CN3CCNC2 [Example 10, (9aR,14aS)-4,5,6,7,9,9a10,11,12,13,14,14a-dodecahydrocyclohepta[c][1,4]diazepino[6,7,1-ij]quinoline hydrochloride] | 56 | –
15 | c1ccc(-c2cc3c4c(c2)C2CCCC2CN4CCNC3)cc1 (stereo not shown) [Example 22, 2-phenyl-4,5,6,7,9,9a,10,11,12,12a-decahydrocyclopenta[c][1,4]diazepino[6,7,1-ij]quinoline hydrochloride] | 88 | –
16 | Clc1cc2c3c(c1)C1CCCCCC1CN3CCNC2 (stereo not shown) [Example 20, 2-chloro-4,5,6,7,9,9a,10,11,12,13,14,14a-dodecahydrocyclohepta[c][1,4]diazepino[6,7,1-ij]quinoline hydrochloride] | 373 | –
